Test results published in patent US5166398A, “4-oxy-substituted phenoxyalkyl carboxylic acid, ester, and alcohol derivatives as antihyper-cholesterolemic and antiatherosclerotic agents” (Warner-Lambert Co., priority 1991, dated 1992).

Test system: not listed separately
Assay: elevation of HDL at 50 mg/kg relative to gemfibrozil 50 mg/kg (procedure of U.S. Pat. No. 4,413,011)
Type: in vivo
Details: ratio of HDL elevation, test drug 50 mg/kg vs gemfibrozil 50 mg/kg; 1 = as effective as gemfibrozil
Method: Additionally, the elevation of HDL is reported in the table as a ratio of the elevation of HDL effected by a dose of 50 mg/kg of the test drug divided by the elevation of HDL effected by a 50 mg/kg dose of gemfibrozil which is used as a control in each experiment. [formula] Thus, a figure of 1 means that the test drug was as effective as gemfibrozil in elevating HDL. […] The test procedure is described in U.S. Pat. No. 4,413,011 which is herein incorporated by reference.
For `CCCCOc1cc(C)c(OCCCC(C)(C)C(=O)OC)cc1C` [Example 2, 5-(4-Butoxy-2,5-dimethylphenoxy)-2,2-dimethylpentanoic acid, methyl ester], the “Δ HDL Test Compound / Δ HDL Gemfibrozil” value was 0.85.
With `CCOc1cc(C)c(OCCCC(C)(C)C(=O)OC)cc1C` [Example 3, 5-(4-Ethoxy-2,5 dimethylphenoxy)-2,2 dimethylpentanoic acid, methyl ester] the “Δ HDL Test Compound / Δ HDL Gemfibrozil” value was 1.2.
In the case of `COc1cc(C)c(OCCCC(C)(C)C(=O)O)cc1C` [Example 4, 5-(4-Methoxy-2,5-dimethylphenoxy)-2,2-dimethylpentanoic acid], the “Δ HDL Test Compound / Δ HDL Gemfibrozil” value is reported as 1.2.
For `CCCCOc1cc(C)c(OCCCC(C)(C)C(=O)O)cc1C` [Example 5, 5-(4-Butoxy-2,5-dimethylphenoxy)-2,2-dimethylpentanoic acid], the “Δ HDL Test Compound / Δ HDL Gemfibrozil” value was 0.9.
For `CCOc1cc(C)c(OCCCC(C)(C)C(=O)O)cc1C` [Example 6, 5-(4-Ethoxy-2,5-dimethylphenoxy)-2,2-dimethylpentanoic acid], the “Δ HDL Test Compound / Δ HDL Gemfibrozil” value was 1.4.
In the case of `COC(=O)C(C)(C)CCCOc1c(C)cc(OC(=O)C(C)(C)C)c(C)c1C` [Example 7, 5-[4-(2,2-Dimethyl-1-oxopropoxy)-2,3,6-trimethylphenoxy]-2,2 dimethylpentanoic acid, methyl ester], the “Δ HDL Test Compound / Δ HDL Gemfibrozil” value is reported as 1.1.
In the case of `COC(=O)C(C)(C)CCCOc1cc(C)c(OCc2ccccc2)c(C)c1C` [Example 8, 2,2-Dimethyl-5-[2,3,5-trimethyl-4-(phenylmethoxy)phenoxy]pentanoic acid, methyl ester], the “Δ HDL Test Compound / Δ HDL Gemfibrozil” value is reported as 1.0.
In the case of `Cc1cc(OCCCC(C)(C)C(=O)O)c(C)c(C)c1OCc1ccccc1` [Example 9, 2,2-Dimethyl-5-[2,3,5-trimethyl-4-(phenylmethoxy)-phenoxy]pentanoic acid], the “Δ HDL Test Compound / Δ HDL Gemfibrozil” value is reported as 0.9.
For `Cc1cc(OCCCC(C)(C)CO)c(C)c(C)c1OCc1ccccc1` [Example 10], the “Δ HDL Test Compound / Δ HDL Gemfibrozil” value was 0.9.
In the case of `COC(=O)C(C)(C)CCCOc1cc(C)c(OCc2ccccc2)c(C)c1` [Example 11, 5-[3,5-Dimethyl-4-(phenylmethoxy)phenoxy]-2,2-dimethylpentanoic acid, methyl ester], the “Δ HDL Test Compound / Δ HDL Gemfibrozil” value is reported as 1.2.
In the case of `Cc1cc(OCc2ccccc2)c(C)cc1OCCCC(C)(C)C(=O)O` [Example 14, 5-[2,5-Dimethyl-4-(phenylmethoxy)phenoxy]-2,2-dimethylpentanoic acid], the “Δ HDL Test Compound / Δ HDL Gemfibrozil” value is reported as 1.0.

Target: T1, acyl-CoA:cholesterol acyltransferase (ACAT) (Oryctolagus cuniculus, UniProt G1SFD9)
T1 construct: rabbit intestinal microsomal fraction; from tissue; host or cells: rabbit intestine, microsomal fraction
T1 sequence (G1SFD9 1-524): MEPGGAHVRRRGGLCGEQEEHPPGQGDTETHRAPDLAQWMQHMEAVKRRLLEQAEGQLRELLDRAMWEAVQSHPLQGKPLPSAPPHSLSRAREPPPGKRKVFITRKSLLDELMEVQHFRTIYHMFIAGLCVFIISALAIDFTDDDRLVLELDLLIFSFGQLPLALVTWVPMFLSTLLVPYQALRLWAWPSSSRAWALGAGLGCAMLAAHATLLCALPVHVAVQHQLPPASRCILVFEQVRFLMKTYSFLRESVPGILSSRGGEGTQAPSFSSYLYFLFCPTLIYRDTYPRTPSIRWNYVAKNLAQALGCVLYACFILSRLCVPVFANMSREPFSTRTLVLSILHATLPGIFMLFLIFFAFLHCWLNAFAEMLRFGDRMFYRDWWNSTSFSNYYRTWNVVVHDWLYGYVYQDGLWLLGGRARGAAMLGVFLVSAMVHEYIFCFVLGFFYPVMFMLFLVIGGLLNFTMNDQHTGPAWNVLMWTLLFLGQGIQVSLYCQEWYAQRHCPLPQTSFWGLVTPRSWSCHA
Assay: inhibition of cholesterol esterification by ACAT, rabbit intestinal microsomal fraction (cholesteryl oleate formation from endogenous cholesterol and exogenous 14C-oleoyl-CoA)
Type: biochemical
Details: rabbit intestinal microsomes; in vitro; read-out: IC50, concentration of test compound required to inhibit cholesteryl oleate formation to 50% of control
Method: The compounds of the present invention were tested for their ability to inhibit the esterification of cholesterol by the enzyme acyl-CoA:cholesterol acyltransferase (ACAT). The data in the table below is expressed as IC50 values, i.e., the concentration of test compound required to inhibit cholesteryl oleate formation to 50% of control.
The in vitro test employed is more fully described in Field, F. J. and Salome, R. G., Biochemica et Biophysica Acta, Vol. 712, pages 557-570 (1982). The assay evaluates the ability of a test compound to inhibit the esterification of cholesterol using endogenous cholesterol of a rabbit intestinal microsomal fraction and exogenous ^14 C-oleoyl-CoA as reactants.
`COC(=O)C(C)(C)CCCOc1cc(C)c(OC(=O)Nc2c(C(C)C)cccc2C(C)C)cc1C` [Example 15, 5-[4-[[[[2,6-Bis(1-methylethyl)phenyl]amino]carbonyl]oxy]-2,5-dimethylphenoxy]-2,2-dimethylpentanoic acid, methyl ester] showed an IC50 of over 5 µM.

Test system: coronary heart disease
Assay: not given
Details: human, in vivo; cited from earlier work
In the case of `Cc1ccc(C)c(OCCCC(C)(C)C(=O)O)c1` [gemfibrozil], the “effect on HDL (in words)” value is given as “elevates HDL” and the “effect on LDL (in words)” value is given as “lowers LDL”.

Same assay, conditions: patients with elevated cholesterol levels; five-year trial; cited from earlier work
In the case of `Cc1ccc(C)c(OCCCC(C)(C)C(=O)O)c1` [gemfibrozil], the “reduction of the rate of heart attack and sudden cardiac death” value is given as 34%.
